Source: ChEMBL document CHEMBL6092174, “Synthesis and anti-influenza virus activity of substituted dibenzoxepine-based baloxavir derivatives” (Eur J Med Chem, 2024)
Calls of active or inactive are those of the source. No cut-off for these calls is given here.

How the values were obtained:
Influenza A virus [1] = test: Antiviral activity against Influenza A virus H3N2 (A/Aichi/2/68) infected in dog MDCK cells assessed as reduction in cytopathic effect incubated for 2 days; assay type: functional, organism-based; details: 48 h
[2] = Cytotoxicity against dog MDCK cells assessed as reduction in cell viability incubated for 2 days by CCK-8 assay; assay type: toxicity, cell-based, Canis lupus familiaris; details: time 2 day
[3] = Selectivity index, ratio of CC50 for cytotoxicty against MDCK cells to EC50 for antiviral activity against Influenza A virus H3N2 (A/Aichi/2/68) infected in dog MDCK cells; assay type: toxicity, cell-based; details: read-out: Selectivity Index
[4] = Metabolic stability in human liver microsomes assessed as half life at 1 uM in presence of NADPH by LC-MS/MS analysis; assay type: ADME, Microsome; details: time 60 min
[5] = Metabolic stability in mouse liver microsomes assessed as half life at 1 uM in presence of NADPH by LC-MS/MS analysis; assay type: ADME, Microsome; details: time 60 min
[6] = Metabolic stability in human liver microsomes assessed as intrinsic clearance at 1 uM incubated for 60 mins in presence of NADPH by LC-MS/MS analysis; assay type: ADME, Microsome; details: 1 h
[7] = Metabolic stability in mouse liver microsomes assessed as intrinsic clearance at 1 uM incubated for 60 mins in presence of NADPH by LC-MS/MS analysis; assay type: ADME, Microsome; details: 1 h
Influenza A virus [8] = test: Potency index, ratio of baloxavir EC50 to test compound EC50 for antiviral activity against Influenza A virus H3N2 (A/Aichi/2/68) infected in dog MDCK cells assessed as reduction in cytopathic effect incubated for 2 days; assay type: functional; details: time 2 day
Influenza A virus [9] = test: Antiviral activity against Influenza A virus H1N1(A/Puetro Rico/8/34) infected in dog MDCK cells assessed as reduction in cytopathic effect incubated for 2 days; assay type: functional, organism-based; details: 48 h
Influenza A virus [10] = test: Antiviral activity against Influenza A virus H1N1(A/FM/1/47) infected in dog MDCK cells assessed as reduction in cytopathic effect incubated for 2 days; assay type: functional, organism-based; details: 48 h
Influenza B virus = test: Antiviral activity against Influenza B virus IBV/Lee/40 infected in dog MDCK cells assessed as reduction in cytopathic effect incubated for 2 days by TCID50 method; assay type: functional, organism-based; details: IBV/Lee/40, MDCK, 48 h
[11] = Half life in CD-1 mouse at 15 mg/kg, po measured upto 24 hrs by LC-MS/MS analysis; assay type: ADME, organism-based; details: in vivo
[12] = Half life in CD-1 mouse at 1 mg/kg, iv measured upto 24 hrs by LC-MS/MS analysis; assay type: ADME, organism-based; details: in vivo
[13] = Tmax in CD-1 mouse at 15 mg/kg, po measured upto 24 hrs by LC-MS/MS analysis; assay type: ADME, organism-based; details: in vivo
[14] = Tmax in CD-1 mouse at 1 mg/kg, iv measured upto 24 hrs by LC-MS/MS analysis; assay type: ADME, organism-based; details: in vivo
[15] = Cmax in CD-1 mouse at 15 mg/kg, po measured upto 24 hrs by LC-MS/MS analysis; assay type: ADME, organism-based; details: in vivo
[16] = Cmax in CD-1 mouse at 1 mg/kg, iv measured upto 24 hrs by LC-MS/MS analysis; assay type: ADME, organism-based; details: in vivo
[17] = AUC (0 to infinity) in CD-1 mouse at 15 mg/kg, po measured upto 24 hrs by LC-MS/MS analysis; assay type: ADME, organism-based; details: in vivo
[18] = AUC (0 to infinity) in CD-1 mouse at 1 mg/kg, iv measured upto 24 hrs by LC-MS/MS analysis; assay type: ADME, organism-based; details: in vivo
[19] = MRT (0 to infinity) in CD-1 mouse at 15 mg/kg, po measured upto 24 hrs by LC-MS/MS analysis; assay type: ADME, organism-based; details: in vivo
[20] = MRT (0 to infinity) in CD-1 mouse at 1 mg/kg, iv measured upto 24 hrs by LC-MS/MS analysis; assay type: ADME, organism-based; details: in vivo
[21] = Oral bioavailability in CD-1 mouse at 15 mg/kg measured upto 24 hrs by LC-MS/MS analysis; assay type: ADME, organism-based; details: in vivo
Influenza A virus [22] = test: Antiviral activity against Influenza A virus H1N1 infected in dog MDCK cells assessed as reduction in polymerase acidic protein expression at 10 to 20 nM by Western blot analysis; assay type: functional, organism-based; details: dose 10-20 nM
Influenza A virus [23] = test: Antiviral activity against Influenza A virus H1N1 infected in dog MDCK cells assessed as disruption of nuclear protein expression at 10 to 20 nM by Western blot analysis; assay type: functional, organism-based; details: dose 10-20 nM
HEK293T [24] = test: Inhibition of Influenza A virus RdRp transfected in HEK293T co-expressing PB1/PB2/PA/NP/firefly luciferase/Renilla luciferase incubated for 24 hrs relative to control; assay type: cell-based; details: dose or concentration not given here
HEK293T [25] = test: Inhibition of Influenza A virus RdRp transfected in HEK293T co-expressing PB1/PB2/PA/NP/firefly luciferase/Renilla luciferase at 1 nM incubated for 24 hrs relative to control; assay type: cell-based

## O=C1c2c(O)c(=O)ccn2N([C@H]2c3ccccc3OCc3c(Cl)cccc32)[C@@H]2COCCN12
Influenza A virus [1]
  EC50: 0.67 nM
[2]
  CC50 at 48 h: 15600 nM
[3]
  selectivity ratio: 23200

## O=C1c2c(O)c(=O)ccn2N([C@@H]2c3ccccc3COc3cc(C(F)(F)F)ccc32)[C@@H]2COCCN12
Influenza A virus [1]
  EC50: 17.2 nM
[2]
  CC50 at 48 h: > 50000 nM
[3]
  selectivity ratio: > 2910

## O=C1c2c(O)c(=O)ccn2N([C@@H]2c3ccccc3COc3cc(F)ccc32)[C@@H]2COCCN12
Influenza A virus [1]
  EC50: 3.91 nM
[2]
  CC50 at 48 h: > 50000 nM
[3]
  selectivity ratio: > 12800

## O=C1c2c(O)c(=O)ccn2N([C@H]2c3ccccc3COc3cc(C(F)(F)F)ccc32)[C@@H]2COCCN12
Influenza A virus [1]
  EC50: 24.9 nM
[2]
  CC50 at 48 h: > 50000 nM
[3]
  selectivity ratio: > 2010

## O=C1c2c(O)c(=O)ccn2N([C@H]2c3ccccc3COc3cc(F)ccc32)[C@@H]2COCCN12
Influenza A virus [1]
  EC50: 1.17 nM
[2]
  CC50 at 48 h: > 50000 nM
[3]
  selectivity ratio: > 42700

## O=C1c2c(O)c(=O)ccn2N([C@@H]2c3ccccc3OCc3c(F)cccc32)[C@@H]2COCCN12
Influenza A virus [1]
  EC50: 8.41 nM
[2]
  CC50 at 48 h: > 50000 nM
[3]
  selectivity ratio: > 5940

## O=C(O)Cc1ccccc1Nc1c(Cl)cccc1Cl [DICLOFENAC]
[4]
  half-life at 1 µM: 0.0938 h
[5]
  half-life at 1 µM: 0.672 h
[6]
  CLint: 246 µL/min/mg
[7]
  CLint: 34.4 µL/min/mg

## O=C1c2c(O)c(=O)ccn2N([C@H]2c3ccc(F)cc3COc3ccccc32)[C@@H]2COCCN12
[4]
  half-life at 1 µM: 11.6 h
Influenza A virus [1]
  EC50: 0.78 nM
[2]
  CC50 at 48 h: > 50000 nM
[3]
  selectivity ratio: > 64100
Influenza A virus [8]
  Ratio: >5
Influenza A virus [9]
  EC50: 3.32 nM
Influenza A virus [10]
  EC50: 1.65 nM
Influenza B virus
  EC50: 2.12 nM
[5]
  half-life at 1 µM: 2.45 h
[6]
  CLint: 2 µL/min/mg
[7]
  CLint: 9.4 µL/min/mg
[11]
  half-life: 2.83 h
[12]
  half-life: 2.6 h
[13]
  Tmax: 1.33 h
[14]
  Tmax: 4.8 min
[15]
  Cmax: 548 ng/mL
[16]
  Cmax: 211 ng/mL
[17]
  AUC(0-inf): 2790 ng·h/mL
[18]
  AUC(0-inf): 343 ng·h/mL
[19]
  MRT inf: 4 h
[20]
  MRT inf: 2.91 h
[21]
  bioavailability: 54.3%
Influenza A virus [22]
  Activity: Active
Influenza A virus [23]
  Activity: Active
HEK293T [24]
  inhibition: 82.6%

## N#Cc1ccc2c(c1)COc1ccccc1[C@@H]2N1[C@@H]2COCCN2C(=O)c2c(O)c(=O)ccn21
Influenza A virus [1]
  EC50: 8.79 nM
[2]
  CC50 at 48 h: > 50000 nM
[3]
  selectivity ratio: > 5690

## O=C1c2c(O)c(=O)ccn2N([C@H]2c3ccccc3COc3c2ccc(F)c3F)[C@@H]2COCCN12
Influenza A virus [1]
  EC50: 5.16 nM
[2]
  CC50 at 48 h: 33300 nM
[3]
  selectivity ratio: 6460

## O=C1c2c(O)c(=O)ccn2N([C@H]2c3ccccc3OCc3c(F)cccc32)[C@@H]2COCCN12
Influenza A virus [1]
  EC50: 7.82 nM
[2]
  CC50 at 48 h: > 50000 nM
[3]
  selectivity ratio: > 6390

## N#Cc1ccc2c(c1)COc1ccccc1[C@H]2N1[C@@H]2COCCN2C(=O)c2c(O)c(=O)ccn21
Influenza A virus [1]
  EC50: 9.43 nM
[2]
  CC50 at 48 h: > 50000 nM
[3]
  selectivity ratio: > 5300

## O=C1c2c(O)c(=O)ccn2N([C@@H]2c3ccccc3COc3c2ccc(F)c3F)[C@@H]2COCCN12
Influenza A virus [1]
  EC50: 1.64 nM
[2]
  CC50 at 48 h: 22100 nM
[3]
  selectivity ratio: 13500

## O=C1c2c(O)c(=O)ccn2N([C@H]2c3ccccc3OCc3c2ccc(F)c3F)[C@@H]2COCCN12
Influenza A virus [1]
  EC50: 2.08 nM
[2]
  CC50 at 48 h: 33000 nM
[3]
  selectivity ratio: 15900

## O=C1c2c(O)c(=O)ccn2N([C@@H]2c3ccc(F)cc3COc3ccccc32)[C@@H]2COCCN12
Influenza A virus [1]
  EC50: 2.5 nM
[2]
  CC50 at 48 h: 35200 nM
[3]
  selectivity ratio: 14100

## O=C1c2c(O)c(=O)ccn2N([C@@H]2c3ccccc3OCc3c(Cl)cccc32)[C@@H]2COCCN12
[4]
  half-life at 1 µM: 2.57 h
Influenza A virus [1]
  EC50: 0.78 nM
[2]
  CC50 at 48 h: 24600 nM
[3]
  selectivity ratio: 31600
Influenza A virus [8]
  Ratio: >5
Influenza A virus [9]
  EC50: 14.4 nM
Influenza A virus [10]
  EC50: 6.1 nM
Influenza B virus
  EC50: 2.32 nM
[5]
  half-life at 1 µM: 2.27 h
[6]
  CLint: 9 µL/min/mg
[7]
  CLint: 10.2 µL/min/mg
[11]
  half-life: 4.45 h
[12]
  half-life: 1.99 h
[13]
  Tmax: 2.67 h
[14]
  Tmax: 4.8 min
[15]
  Cmax: 222 ng/mL
[16]
  Cmax: 258 ng/mL
[17]
  AUC(0-inf): 1680 ng·h/mL
[18]
  AUC(0-inf): 355 ng·h/mL
[19]
  MRT inf: 6.25 h
[20]
  MRT inf: 2.57 h
[21]
  bioavailability: 31.5%
Influenza A virus [22]
  Activity: Active
Influenza A virus [23]
  Activity: Active
HEK293T [24]
  inhibition: 72%

## CCOC(=O)Cc1ccc2c(c1)[C@H](N1[C@@H]3COCCN3C(=O)c3c(O)c(=O)ccn31)c1ccccc1CO2
Influenza A virus [1]
  EC50: 36 nM
[2]
  CC50 at 48 h: > 50000 nM
[3]
  selectivity ratio: > 1390

## O=C1c2c(O)c(=O)ccn2N([C@H]2c3ccccc3COc3ccccc32)[C@@H]2COCCN12
Influenza A virus [1]
  EC50: 1.06 nM
[2]
  CC50 at 48 h: > 50000 nM
[3]
  selectivity ratio: > 47200

## CCOC(=O)Cc1ccc2c(c1)[C@@H](N1[C@@H]3COCCN3C(=O)c3c(O)c(=O)ccn31)c1ccccc1CO2
Influenza A virus [1]
  EC50: 705 nM
[2]
  CC50 at 48 h: > 50000 nM
[3]
  selectivity ratio: > 71

## O=C1c2c(O)c(=O)ccn2N([C@@H]2c3ccccc3COc3ccccc32)[C@@H]2COCCN12
Influenza A virus [1]
  EC50: 1.75 nM
[2]
  CC50 at 48 h: > 50000 nM
[3]
  selectivity ratio: > 28600

## O=C1c2c(O)c(=O)ccn2N([C@@H]2c3ccccc3SCc3c2ccc(F)c3F)[C@@H]2COCCN12 [BALOXAVIR]
[4]
  half-life at 1 µM: 3.03 h
[2]
  CC50 at 48 h: 9300 nM
Influenza A virus [9]
  EC50: 1.85 nM
Influenza B virus
  EC50: 2.02 nM
[5]
  half-life at 1 µM: 2.68 h
[6]
  CLint: 7.6 µL/min/mg
[7]
  CLint: 8.6 µL/min/mg
[11]
  half-life: 3.78 h
[12]
  half-life: 2.8 h
[13]
  Tmax: 1.67 h
[14]
  Tmax: 4.8 min
[15]
  Cmax: 523 ng/mL
[16]
  Cmax: 205 ng/mL
[19]
  MRT inf: 4.63 h
[20]
  MRT inf: 3 h
HEK293T [25]
  inhibition: 76.9%

## O=C1c2c(O)c(=O)ccn2N([C@@H]2c3ccccc3OCc3c2ccc(F)c3F)[C@@H]2COCCN12
Influenza A virus [1]
  EC50: 1.68 nM
[2]
  CC50 at 48 h: 19100 nM
[3]
  selectivity ratio: 11400
